Reference: patent US20130254944A1, “Herbicide Tolerant Soybeans and Methods of Use” (PIONEER HI BRED INTERNATIONAL INC, priority 2012, published 2013)

Legend:
Format in all cases: in vivo
[1] = system: soybean having both the Als1 and Als2 mutations; experiment: Greenhouse postemergence test of ALS-inhibiting herbicides and isobole analysis, soybean with Als1 and Als2 mutations; conditions: for phytotoxic response (in words), Als1+Als2: rates 0.5x to 8x the label rate; for Avg response (% phytotoxicity), Trait Als1 + Als2: Table 2
Protocol: (§1) Soybean lines having wild type als1 & 2 genes, the Als1 mutation, the Als2 mutation, or both the Als1 and Als2 mutations were evaluated for their response to various herbicides. Two seeds from each line were planted into 4-inch pots containing Redi-Earth potting mix (Sun Gro Horticulture Canada Ltd. 52130 RR65, Seba Beach, Alberta TOE 2B0), with two replications planted for each treatment. Pots were placed in flats at 15 pots/flat, and the resulting plants were grown in a greenhouse environment supplemented with lighting (16 hr photoperiod) for the duration of the test. Selected herbicides representing the mode of action that inhibits the acetolactate synthase enzyme, also known as the acetohydroxyacid synthase enzyme, were applied postemergence to soybean when soybean plants were at the V2 growth stage, which is the stage at which the first two trifoliolate leaves were expanded.
(§2) Eleven active ingredients representing the five chemical families with herbicidal activity on the acetolactate synthase enzyme were tested. These herbicides can cause a phytotoxic response in wild type soybean plants. The five chemical families tested were sulfonylaminocarbonyltriazolinone (also known as triazolinone), imidazolinone, sulfonylurea, pyrimidinylthiobenzoate, and triazolopyrimidine. Application rates ranged from 0.5 times to eight times the currently labeled application rate for each active ingredient with spray application volume at 30 gallons/acre. The application rates tested were 0.5×, 1×, 2×, 4× and 8× the label rate for each herbicide. Herbicidal active ingredients were applied as formulated materials dispersed in water containing 0.25% nonionic surfactant (Trend® 90).
(§3) The test was evaluated by visually scoring plant phenotype 14 days after the herbicides were applied. Controls consisted of soybean plants of the same variety that received no herbicide treatments for each of all the varieties tested. Soybean response was recorded on a zero to 100 visual scale in which zero is no phytotoxic response and 100 is plant death fourteen days after the herbicides were applied. Soybean response (percent phytotoxicity) to postemergence applications of herbicides inhibiting the acetolactate synthase enzyme test results are shown in Table 1.
(§4) Results in Table 1 were evaluated using the isobole method for analyzing interactions. […] Here the biologically active agents that are being assessed for interaction (synergy) are gene mutations in soybean. The effectiveness of the genes in providing improved tolerance to ALS-inhibiting herbicides was assessed by applying increasing doses of herbicides to each soybean line with its mutation(s).
(§5) An isobole reduces a dose response surface in three dimensional space to a two dimensional plot by fixing a defined response level (e.g., 50% response). The isobole plot is a graph in the Cartesian plane with a straight line connecting the isoeffective rates of the individual components of the combination. This straight line represents expected responses for zero interactive combinations. The isoeffective rate used to create the isobole is often the EC50, the rate estimated to elicit 50% response, but other ECx values can be used. Since the isobole method is based on the potency of the components of the combination, an experimental design testing a range of rates expected to elicit the full range of responses (e.g., 0 to maximum response) is best. (Ferry et al. (2005) 2005 Conference on Applied Statistics in Agriculture Proceedings pp 33-50, Manhattan, Kans., Kansas State Univ.; Green and Streibig (1993) Herbicide Mixtures, pp 117-134 in Herbicide Bioassays, Streibig and Hudsk Eds, CRC, Boca Raton, Fla.).
(§6) Loglogistic dose response curves were fit to percent phytotoxicity response data using log 10 of dose (McCullagh and Nelder (1989) Generalized Linear Models, Chapman & Hall, London). Curves were fit using the logit link with normal errors. […]

[2] = system: soybean having the Als2 mutation; experiment: Greenhouse postemergence test of ALS-inhibiting herbicides, soybean with Als2 mutation; conditions: for phytotoxic response (in words), Als2: rates 0.5x to 8x the label rate; for Avg response (% phytotoxicity), Trait Als2: Table 2
Protocol: as §1, §2, §3, §4, §5, §6

wild type soybean = experiment: Greenhouse postemergence test of ALS-inhibiting herbicides, wild type soybean
Protocol: as §1, §2, §3

[3] = system: soybean having the Als1 mutation; experiment: Greenhouse postemergence test of ALS-inhibiting herbicides, soybean with Als1 mutation; conditions: for phytotoxic response (in words), Als1: rates 0.5x to 8x the label rate; for Avg response (% phytotoxicity), Trait Als1: Table 2
Protocol: as §1, §2, §3, §4, §5, §6

[4] = 8.75 g ai/ha postemergence at V2, scored 14 days after application
[5] = 17.5 g ai/ha postemergence at V2, scored 14 days after application
[6] = 35 g ai/ha postemergence at V2, scored 14 days after application
[7] = 70 g ai/ha postemergence at V2, scored 14 days after application
[8] = 140 g ai/ha postemergence at V2, scored 14 days after application
[9] = 4.38 g ai/ha postemergence at V2, scored 14 days after application
[10] = rate of herbicide estimated to cause 10% phytotoxic response, loglogistic fit

COc1cc(Cl)nc(NC(=O)NS(=O)(=O)c2ccccc2C(=O)O)n1 [Chlorimuron]
Soybean response (percent phytotoxicity), Als1 + Als2 [1, 4]: 0% | Soybean response (percent phytotoxicity), Als1 + Als2 [1, 5]: 0% | Soybean response (percent phytotoxicity), Als1 + Als2 [1, 6]: 0% | Soybean response (percent phytotoxicity), Als1 + Als2 [1, 7]: 0% | Soybean response (percent phytotoxicity), Als1 + Als2 [1, 8]: 0% | phytotoxic response (in words), Als1+Als2 [1]: did not cause any phytotoxic response | Soybean response (percent phytotoxicity), Als2 [2, 4]: 0% | Soybean response (percent phytotoxicity), Als2 [2, 5]: 0% | Soybean response (percent phytotoxicity), Als2 [2, 6]: 0% | Soybean response (percent phytotoxicity), Als2 [2, 7]: 0% | Soybean response (percent phytotoxicity), Als2 [2, 8]: 0% | phytotoxic response (in words), Als2 [2]: did not cause any phytotoxic response | Soybean response (percent phytotoxicity), Wild type (wild type soybean; [4]): 0% | Soybean response (percent phytotoxicity), Wild type (wild type soybean; [5]): 5% | Soybean response (percent phytotoxicity), Wild type (wild type soybean; [6]): 20% | Soybean response (percent phytotoxicity), Wild type (wild type soybean; [7]): 35% | Soybean response (percent phytotoxicity), Wild type (wild type soybean; [8]): 45% | Soybean response (percent phytotoxicity), Als1 [3, 4]: 0% | Soybean response (percent phytotoxicity), Als1 [3, 5]: 0% | Soybean response (percent phytotoxicity), Als1 [3, 6]: 0% | Soybean response (percent phytotoxicity), Als1 [3, 7]: 0% | Soybean response (percent phytotoxicity), Als1 [3, 8]: 0% | phytotoxic response (in words), Als1 [3]: did not cause any phytotoxic response

CCOc1nc(F)cc2nc(S(=O)(=O)Nc3c(Cl)cccc3C(=O)OC)nn12 [Cloransulam methyl]
Soybean response (percent phytotoxicity), Als1 + Als2 [1, 4]: 0% | Soybean response (percent phytotoxicity), Als1 + Als2 [1, 5]: 0% | Soybean response (percent phytotoxicity), Als1 + Als2 [1, 6]: 0% | Soybean response (percent phytotoxicity), Als1 + Als2 [1, 7]: 0% | Soybean response (percent phytotoxicity), Als1 + Als2 [1, 8]: 0% | phytotoxic response (in words), Als1+Als2 [1]: did not cause any phytotoxic response | Soybean response (percent phytotoxicity), Als2 [2, 4]: 0% | Soybean response (percent phytotoxicity), Als2 [2, 5]: 0% | Soybean response (percent phytotoxicity), Als2 [2, 6]: 0% | Soybean response (percent phytotoxicity), Als2 [2, 7]: 0% | Soybean response (percent phytotoxicity), Als2 [2, 8]: 0% | phytotoxic response (in words), Als2 [2]: did not cause any phytotoxic response | Soybean response (percent phytotoxicity), Wild type (wild type soybean; [4]): 0% | Soybean response (percent phytotoxicity), Wild type (wild type soybean; [5]): 0% | Soybean response (percent phytotoxicity), Wild type (wild type soybean; [6]): 0% | Soybean response (percent phytotoxicity), Wild type (wild type soybean; [7]): 5% | Soybean response (percent phytotoxicity), Wild type (wild type soybean; [8]): 15% | Soybean response (percent phytotoxicity), Als1 [3, 4]: 0% | Soybean response (percent phytotoxicity), Als1 [3, 5]: 0% | Soybean response (percent phytotoxicity), Als1 [3, 6]: 0% | Soybean response (percent phytotoxicity), Als1 [3, 7]: 0% | Soybean response (percent phytotoxicity), Als1 [3, 8]: 0% | phytotoxic response (in words), Als1 [3]: did not cause any phytotoxic response

Cc1cc(C)nc(NC(=O)NS(=O)(=O)c2ccccc2C(=O)O)n1 [Sulfometuron]
Soybean response (percent phytotoxicity), Als1 + Als2 [1, 9]: 0% | Avg response (% phytotoxicity), Trait Als1 + Als2 ([1]; 4.38 g ai/ha): 0% | Soybean response (percent phytotoxicity), Als1 + Als2 [1, 4]: 0% | Avg response (% phytotoxicity), Trait Als1 + Als2 ([1]; 8.75 g ai/ha): 0% | Soybean response (percent phytotoxicity), Als1 + Als2 [1, 5]: 0% | Avg response (% phytotoxicity), Trait Als1 + Als2 ([1]; 17.5 g ai/ha): 0% | Soybean response (percent phytotoxicity), Als1 + Als2 [1, 6]: 10% | Avg response (% phytotoxicity), Trait Als1 + Als2 ([1]; 35 g ai/ha): 10% | Soybean response (percent phytotoxicity), Als1 + Als2 [1, 7]: 5% | Avg response (% phytotoxicity), Trait Als1 + Als2 ([1]; 70 g ai/ha): 5% | EC10, Als1 + Als2 [1, 10]: 114.81 g ai/ha | tolerance (in words), soybean containing both the Als1 and the Als2 genes ([1]; the higher doses): extremely tolerant | Soybean response (percent phytotoxicity), Als2 [2, 9]: 35% | Avg response (% phytotoxicity), Trait Als2 ([2]; 4.38 g ai/ha): 35% | Soybean response (percent phytotoxicity), Als2 [2, 4]: 40% | Avg response (% phytotoxicity), Trait Als2 ([2]; 8.75 g ai/ha): 40% | Soybean response (percent phytotoxicity), Als2 [2, 5]: 70% | Avg response (% phytotoxicity), Trait Als2 ([2]; 17.5 g ai/ha): 70% | Soybean response (percent phytotoxicity), Als2 [2, 6]: 75% | Avg response (% phytotoxicity), Trait Als2 ([2]; 35 g ai/ha): 75% | Soybean response (percent phytotoxicity), Als2 [2, 7]: 80% | Avg response (% phytotoxicity), Trait Als2 ([2]; 70 g ai/ha): 80% | EC10, Als2 [2, 10]: 0.76 g ai/ha | phytotoxicity (in words), soybean containing only the Als2 gene ([2]; the higher doses): substantial phytotoxicity | Soybean response (percent phytotoxicity), Wild type (wild type soybean; [9]): 60% | Soybean response (percent phytotoxicity), Wild type (wild type soybean; [4]): 95% | Soybean response (percent phytotoxicity), Wild type (wild type soybean; [5]): 98% | Soybean response (percent phytotoxicity), Wild type (wild type soybean; [6]): 98% | Soybean response (percent phytotoxicity), Wild type (wild type soybean; [7]): 98% | Soybean response (percent phytotoxicity), Als1 [3, 9]: 0% | Avg response (% phytotoxicity), Trait Als1 ([3]; 4.38 g ai/ha): 0% | Soybean response (percent phytotoxicity), Als1 [3, 4]: 0% | Avg response (% phytotoxicity), Trait Als1 ([3]; 8.75 g ai/ha): 0% | Soybean response (percent phytotoxicity), Als1 [3, 5]: 10% | Avg response (% phytotoxicity), Trait Als1 ([3]; 17.5 g ai/ha): 10% | Soybean response (percent phytotoxicity), Als1 [3, 6]: 55% | Avg response (% phytotoxicity), Trait Als1 ([3]; 35 g ai/ha): 55% | Soybean response (percent phytotoxicity), Als1 [3, 7]: 80% | Avg response (% phytotoxicity), Trait Als1 ([3]; 70 g ai/ha): 80% | EC10, Als1 [3, 10]: 14.93 g ai/ha | phytotoxicity (in words), soybean containing only the Als1 gene ([3]; the higher doses): substantial phytotoxicity
